Reference: patent US20060069132A1, “Azolecarboxamide herbicides” (priority 2004, published 2006)

Columns and labels:
[1] = system: morningglory; test: Test C pre-/postemergence herbicide test; type: in vivo, Ipomoea coccinea; set-up: key to Plant response rating, Morningglory: 0 = no effect, 100 = complete control; settings: for Morningglory plant response rating: Preemergence, scale 0 to 100, 0 no effect, 100 complete control
Summary of the method: (§1)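 Pre/post spray; non-phytotoxic solvent + surfactant. Post-timing 1–4 leaves, 2–18 cm. Read-out: visual % control vs untreated, day 12–14, greenhouse.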

[2] = system: pigweed; test: Test C pre-/postemergence herbicide test; type: in vivo, Amaranthus retroflexus; settings: for Pigweed plant response rating: Preemergence, scale 0 to 100, 0 no effect, 100 complete control
Summary of the method: as §1

[3] = system: large crabgrass; test: Test A pre-/postemergence herbicide test; type: in vivo, Digitaria sanguinalis
Summary of the method: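 Greenhouse injury scoring (0–100, complete control = 100) at approximately ten days follows simultaneous pre- and postemergence application. Soil received a directed spray after seeding; seedlings of 2–10 cm at the one- to two-leaf stage were sprayed to runoff.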

[4] = system: common (oilseed) sunflower; test: Test C pre-/postemergence herbicide test; type: in vivo, Helianthus annuus; settings: for Sunflower plant response rating: Preemergence, scale 0 to 100, 0 no effect, 100 complete control
Summary of the method: as §1

[5] = system: rice; test: Test B pre-/postemergence herbicide test; type: in vivo, Oryza sativa; settings: preemergence
Summary of the method: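 Formulation: non-phytotoxic solvent mix with surfactant. Timing: preemergence on seed and postemergence on 2–18 cm plants, applied concurrently. Readout after 13–15 d greenhouse: visual 0–100 control rating against controls.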

[6] = system: kochia; test: Test C pre-/postemergence herbicide test; type: in vivo, Kochia scoparia; settings: for Kochia plant response rating: Preemergence, 500 g ai/ha, scale 0 to 100, 0 no effect, 100 complete control
Summary of the method: as §1

[7] = system: woolly cupgrass; test: Test C pre-/postemergence herbicide test; type: in vivo, Eriochloa villosa; settings: for Cupgrass, Woolly plant response rating: Preemergence, scale 0 to 100, 0 no effect, 100 complete control
Summary of the method: as §1

[8] = system: giant foxtail; test: Test C pre-/postemergence herbicide test; type: in vivo, Setaria faberi; settings: for Foxtail, Giant plant response rating: Preemergence, scale 0 to 100, 0 no effect, 100 complete control
Summary of the method: as §1

[9] = system: eastern black nightshade; test: Test C pre-/postemergence herbicide test; type: in vivo, Solanum ptycanthum; settings: for Nightshade plant response rating: Preemergence, scale 0 to 100, 0 no effect, 100 complete control
Summary of the method: as §1

[10] = system: barnyardgrass; test: Test C flooded paddy test; type: in vivo, Echinochloa crus-galli
Summary of the method: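 Scoring by eye, 12–14 days post-treatment, greenhouse-held plants vs. controls; 0 no effect, 100 complete control. Sprayed at 1–4 leaves (2–18 cm); paddy barnyardgrass at 2 leaves, flooded.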

[11] = 62 g ai/ha, preemergence, scale 0 to 100
[12] = 125 g ai/ha, scale 0 (no effect) to 100 (complete control), visual, 12 to 14 days, preemergence
[13] = 250 g ai/ha, scale 0-100, preemergence
[14] = 125 g ai/ha, 0 = no effect, 100 = complete control
[15] = 250 g ai/ha, scale 0 to 100 (0 no effect, 100 complete control), visual, 12 to 14 days, preemergence
[16] = 500 g ai/ha, scale 0 to 100 (0 no effect, 100 complete control), visual, 12 to 14 days, preemergence

In the case of C=CCNC(=O)c1cccc(NC(=O)c2sc(C(C)(C)C)nc2C)c1 [Compound 202], the “Plant response rating, Morningglory” value [1, 11] is reported as 0, the “Plant response rating, Morningglory” value [1, 12] is reported as 55 and the “Plant response rating, Morningglory” value [1, 13] is reported as 80. The “Morningglory plant response rating” value ([1]; 500 g ai/ha) was 85, the “Plant response rating, Pigweed” value [2, 11] was 95 and the “Plant response rating, Pigweed” value [2, 12] was 100. For the same molecule, the “Plant response rating, Pigweed” value [2, 13] was 100, the “Pigweed plant response rating” value ([2]; 500 g ai/ha) was 100 and the “Crabgrass, Large plant response rating” value ([3]; Postemergence, 500 g ai/ha, 0 to 100 scale, 0 no effect, 100 complete control) was 30. The “Plant response rating, Crabgrass, Large” value ([3]; Postemergence, 2000 g ai/ha, 0 to 100 scale, 0 no effect, 100 complete control) was 65, the “Crabgrass, Large plant response rating” value ([3]; Preemergence, 2000 g ai/ha, visual rating, 0 to 100 scale (0 no effect, 100 complete control)) was 100 and the “Crabgrass, Large plant response rating” value ([3]; preemergence, 500 g ai/ha, visual injury, 0 to 100 scale (0 no effect, 100 complete control)) was 85. For the same molecule, the “Plant response rating, Sunflower” value [4, 11] was 0, the “Plant response rating, Sunflower” value [4, 12] was 0 and the “Plant response rating, Sunflower” value [4, 13] was 10. For the same molecule, the “Sunflower plant response rating” value ([4]; 500 g ai/ha) was 10, the “Rice plant response rating (0 to 100 scale)” value [5, 14] was 10 and the “Plant response rating, Rice” value ([5]; 500 g ai/ha, visual rating 0-100, 0 no effect, 100 complete control) was 30. For the same molecule, the “Plant response rating, Kochia” value [6, 11] was 60, the “Plant response rating, Kochia” value [6, 12] was 85 and the “Plant response rating, Kochia” value [6, 13] was 85. For the same molecule, the “Kochia plant response rating” value [6] was 95, the “Plant response rating, Cupgrass, Woolly” value [7, 11] was 0 and the “Plant response rating, Cupgrass, Woolly” value [7, 12] was 10. For the same molecule, the “Plant response rating, Cupgrass, Woolly” value [7, 13] was 20, the “Cupgrass, Woolly plant response rating” value ([7]; 500 g ai/ha) was 60 and the “Plant response rating, Foxtail, Giant” value [8, 11] was 0. For the same molecule, the “Plant response rating, Foxtail, Giant” value [8, 12] was 40, the “Plant response rating, Foxtail, Giant” value [8, 13] was 80 and the “Foxtail, Giant plant response rating” value ([8]; 500 g ai/ha) was 100. The “Plant response rating, Nightshade” value [9, 11] was 20, the “Plant response rating, Nightshade” value [9, 12] was 95 and the “Plant response rating, Nightshade” value [9, 13] was 100. For the same molecule, the “Nightshade plant response rating” value ([9]; 500 g ai/ha) was 100.
For CCCn1nc(C(C)(C)C)cc1C(=O)Nc1cccc(C(=O)NCC)c1 [Compound 57], the “Plant response rating (0 = no effect, 100 = complete control), Morningglory” value ([1]; 62 g ai/ha, preemergence) was 0, the “Plant response rating, Morningglory” value [1, 12] was 0 and the “Plant response rating, Morningglory” value [1, 15] was 25. For the same molecule, the “Morningglory plant response rating” value ([1]; 500 g ai/ha) was 25, the “Plant response rating (0 = no effect, 100 = complete control), Pigweed” value ([2]; 62 g ai/ha, preemergence) was 100 and the “Plant response rating, Pigweed” value [2, 12] was 100. The “Plant response rating, Pigweed” value [2, 15] was 100, the “Pigweed plant response rating” value ([2]; 500 g ai/ha) was 100 and the “Plant response rating (0 = no effect, 100 = complete control), Sunflower” value ([4]; 62 g ai/ha, preemergence) was 0. For the same molecule, the “Plant response rating, Sunflower” value [4, 12] was 0, the “Plant response rating, Sunflower” value [4, 15] was 0 and the “Sunflower plant response rating” value ([4]; 500 g ai/ha) was 0. The “Plant response rating, Rice” value ([5]; 125 g ai/ha, 0 to 100 scale, 0 is no effect, 100 is complete control) was 30, the “Plant response rating (0 = no effect, 100 = complete control), Kochia” value ([6]; 62 g ai/ha, preemergence) was 100 and the “Plant response rating, Kochia” value [6, 12] was 100. For the same molecule, the “Plant response rating, Kochia” value [6, 15] was 100, the “Kochia plant response rating” value [6] was 100 and the “Plant response rating (0 = no effect, 100 = complete control), Cupgrass, Woolly” value ([7]; 62 g ai/ha, preemergence) was 0. For the same molecule, the “Plant response rating, Cupgrass, Woolly” value [7, 12] was 0, the “Plant response rating, Cupgrass, Woolly” value [7, 15] was 25 and the “Cupgrass, Woolly plant response rating” value ([7]; 500 g ai/ha) was 70. For the same molecule, the “Plant response rating (0 = no effect, 100 = complete control), Foxtail, Giant” value ([8]; 62 g ai/ha, preemergence) was 20, the “Plant response rating, Foxtail, Giant” value [8, 12] was 95 and the “Plant response rating, Foxtail, Giant” value [8, 15] was 100. The “Foxtail, Giant plant response rating” value ([8]; 500 g ai/ha) was 100, the “Plant response rating (0 = no effect, 100 = complete control), Nightshade” value ([9]; 62 g ai/ha, preemergence) was 85 and the “Plant response rating, Nightshade” value [9, 12] was 95. For the same molecule, the “Plant response rating, Nightshade” value [9, 15] was 100 and the “Nightshade plant response rating” value ([9]; 500 g ai/ha) was 100.
With CCn1nc(C(C)(C)C)cc1C(=O)Nc1cc(C(=O)N2CCCC2)ccc1F [Compound 242] the “Plant response rating, Morningglory” value [1, 11] was 0, the “Plant response rating, Morningglory” value [1, 12] was 0 and the “Plant response rating, Morningglory” value [1, 13] was 0. For the same molecule, the “Plant response rating, Morningglory” value [1, 16] was 15, the “Plant response rating, Pigweed” value [2, 11] was 100 and the “Plant response rating, Pigweed” value [2, 12] was 100. The “Plant response rating, Pigweed” value [2, 13] was 100, the “Plant response rating, Pigweed” value [2, 16] was 100 and the “Plant response rating, Sunflower” value [4, 11] was 0. For the same molecule, the “Plant response rating, Sunflower” value [4, 13] was 50, the “Plant response rating, Sunflower” value [4, 16] was 95 and the “Rice plant response rating (0 to 100 scale)” value [5, 14] was 50. The “Plant response rating, Rice” value ([5]; 500 g ai/ha, visual rating, 0 = no effect, 100 = complete control) was 80, the “Barnyardgrass plant response rating” value ([10]; 62 g ai/ha, scale 0 to 100 (0 no effect, 100 complete control)) was 15 and the “Barnyardgrass plant response rating” value ([10]; 125 g ai/ha, scale 0 to 100 (0 no effect, 100 complete control)) was 75. For the same molecule, the “Barnyardgrass plant response rating” value ([10]; 250 g ai/ha, scale of 0 to 100, 0 is no effect, 100 is complete control) was 90, the “Plant response rating, Barnyardgrass” value ([10]; 500 g ai/ha, visual rating after 12 to 14 days, scale 0 to 100 (0 no effect, 100 complete control)) was 95 and the “Plant response rating, Cupgrass, Woolly” value [7, 11] was 75. The “Plant response rating, Cupgrass, Woolly” value [7, 12] was 80, the “Plant response rating, Cupgrass, Woolly” value [7, 13] was 95 and the “Plant response rating, Cupgrass, Woolly” value [7, 16] was 100. For the same molecule, the “Plant response rating, Foxtail, Giant” value [8, 11] was 85, the “Plant response rating, Foxtail, Giant” value [8, 12] was 100 and the “Plant response rating, Foxtail, Giant” value [8, 13] was 100. For the same molecule, the “Plant response rating, Foxtail, Giant” value [8, 16] was 100, the “Plant response rating, Nightshade” value [9, 11] was 100 and the “Plant response rating, Nightshade” value [9, 12] was 100. The “Plant response rating, Nightshade” value [9, 13] was 100 and the “Plant response rating, Nightshade” value [9, 16] was 100.
